Biological target: ASK1 (Homo sapiens (Human), UniProt Q99683)
Test: ASK1 Kinase Assay (Promega ASK1 Kinase Enzyme System, ADP-Glo)
Format: biochemical
Conditions: enzyme 50 nM, ATP 10 μM
Description: The ASK1 enzymatic assay was run following Promega ASK1 Kinase Enzyme System (Cat #V3881). The kit provides the protocol, enzymes and all reagents necessary to run an assay. Firstly, the compounds, enzyme, substrate and ATP were diluted in provided assay buffer. The final concentration of the enzyme was 50 nM, substrate (Myelin basic protein) 1 μg/ml and ATP 10 μM. The compound and the enzyme were pre-incubated in a 384 well white solid bottom plate (Greiner, Cat#784075) for 10 minutes. After incubation, the substrate and ATP were added and incubated for further 60 minutes. After 60 minutes, ADP-Glo™ was added and plate was incubated for another 40 minutes. After 40 minutes, Kinase Detection Reagent was added and the plate was incubated for 45 minutes. After 45 minutes, plate was read on Perkin Elmer EnVision using luminescence read (0.5 seconds/well).

Sequence of ASK1 (Q99683 649-946 limits assumed): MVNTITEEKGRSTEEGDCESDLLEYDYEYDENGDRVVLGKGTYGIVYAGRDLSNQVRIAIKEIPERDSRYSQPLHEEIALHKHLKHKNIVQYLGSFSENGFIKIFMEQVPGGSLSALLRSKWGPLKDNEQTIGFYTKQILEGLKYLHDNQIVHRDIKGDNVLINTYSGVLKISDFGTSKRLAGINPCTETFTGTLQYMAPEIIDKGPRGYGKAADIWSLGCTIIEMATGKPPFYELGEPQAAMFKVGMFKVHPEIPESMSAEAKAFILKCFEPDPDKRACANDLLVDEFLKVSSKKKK

| Structure (SMILES) | IC50 [nM] |
| --- | --- |
| O=C1c2cc(-c3cncc(F)c3)ccc2CN1c1cccc(-c2nncn2C2CC2)n1 [Compound 55, 2-(6-(4-cyclopropyl-4H-1,2,4-triazol-3-yl)pyridin-2-yl)-6-(5-fluoropyridin-3-yl)isoindolin-1-one] | 200 to 1000 |
| O=C1c2cc(-c3cnc(C4CC4)nc3)ccc2CN1c1cccc(-c2nncn2C2CC2)n1 [Compound 56, 2-(6-(4-cyclopropyl-4H-1,2,4-triazol-3-yl)pyridin-2-yl)-6-(2-cyclopropylpyrimidin-5-yl)isoindolin-1-one] | < 200 |
| Cn1ccnc1-c1ccc2c(c1)C(=O)N(c1cccc(-c3nncn3C3CC3)n1)C2 [Compound 57, 2-(6-(4-cyclopropyl-4H-1,2,4-triazol-3-yl)pyridin-2-yl)-6-(1-methyl-1H-imidazol-2-yl)isoindolin-1-one] | < 200 |
| O=C1c2cc(-c3ccccn3)ccc2CN1c1cccc(-c2nncn2C2CC2)n1 [Compound 58, 2-(6-(4-cyclopropyl-4H-1,2,4-triazol-3-yl)pyridin-2-yl)-6-(pyridin-2-yl)isoindolin-1-one] | < 200 |
| O=C1c2cc(-c3cccnn3)ccc2CN1c1cccc(-c2nncn2C2CC2)n1 [Compound 59, 2-(6-(4-cyclopropyl-4H-1,2,4-triazol-3-yl)pyridin-2-yl)-6-(pyridazin-3-yl)isoindolin-1-one] | < 200 |
| O=C1c2cc(-c3ccc(C4CC4)nn3)ccc2CN1c1cccc(-c2nncn2C2CC2)n1 [Compound 61, 2-(6-(4-cyclopropyl-4H-1,2,4-triazol-3-yl)pyridin-2-yl)-6-(6-cyclopropylpyridazin-3-yl)isoindolin-1-one] | < 200 |
| O=C1c2cc(-n3cc(C4CC4)nn3)ccc2CN1c1cccc(-c2nncn2C2CC2)n1 [Compound 62, 6-(4-cyclopropyl-1H-1,2,3-triazol-1-yl)-2-(6-(4-cyclopropyl-4H-1,2,4-triazol-3-yl)pyridin-2-yl)isoindolin-1-one] | < 200 |
| O=C1c2cc(-c3cccnc3)c(F)cc2CN1c1cccc(-c2nncn2C2CC2)n1 [Compound 63, 2-(6-(4-cyclopropyl-4H-1,2,4-triazol-3-yl)pyridin-2-yl)-5-fluoro-6-(pyridin-3-yl)isoindolin-1-one] | < 200 |
| O=C1c2cc(-c3cccnc3)c(Cl)cc2CN1c1cccc(-c2nncn2C2CC2)n1 [Compound 65, 5-chloro-2-(6-(4-cyclopropyl-4H-1,2,4-triazol-3-yl)pyridin-2-yl)-6-(pyridin-3-yl)isoindolin-1-one] | < 200 |
| CN(C)c1cc2c(cc1-c1cccnc1)C(=O)N(c1cccc(-c3nncn3C3CC3)n1)C2 [Compound 67, 2-(6-(4-cyclopropyl-4H-1,2,4-triazol-3-yl)pyridin-2-yl)-5-(dimethylamino)-6-(pyridin-3-yl)isoindolin-1-one] | < 200 |
| COC(=O)c1ccc2c(c1)C(=O)N(c1cccc(-c3nncn3C3CC3)n1)C2 [Compound 72, methyl 2-(6-(4-cyclopropyl-4H-1,2,4-triazol-3-yl)pyridin-2-yl)-3-oxoisoindoline-5-carboxylate] | < 200 |
| O=C(O)c1ccc2c(c1)C(=O)N(c1cccc(-c3nncn3C3CC3)n1)C2 [Compound 73, 2-(6-(4-cyclopropyl-4H-1,2,4-triazol-3-yl)pyridin-2-yl)-3-oxoisoindoline-5-carboxylic acid] | < 200 |
| CN(C)C(=O)c1ccc2c(c1)C(=O)N(c1cccc(-c3nncn3C3CC3)n1)C2 [Compound 74, 2-(6-(4-cyclopropyl-4H-1,2,4-triazol-3-yl)pyridin-2-yl)-N,N-dimethyl-3-oxoisoindoline-5-carboxamide] | 200 to 1000 |
| O=C1c2ccccc2CN1c1cccc(-c2nnc3n2CCC3)n1 [Compound 76, 2-(6-(6,7-dihydro-5H-pyrrolo[2,1-c][1,2,4]triazol-3-yl)pyridin-2-yl)isoindolin-1-one] | 200 to 1000 |
| O=C1c2ccccc2CN1c1cccc(-c2nnc3n2CCCC3)n1 [Compound 77, 2-(6-(5,6,7,8-Tetrahydro-[1,2,4]triazolo[4,3-a]pyridin-3-yl)pyridin-2-yl)isoindolin-1-one] | 1000 to 10000 |
| O=C1c2ccccc2CN1c1cccc(-c2nnc3n2[C@@H](CO)CC3)n1 [Compound 79, (R)-2-(6-(5-(hydroxymethyl)-6,7-dihydro-5H-pyrrolo[2,1-c][1,2,4]triazol-3-yl)pyridin-2-yl)isoindolin-1-one] | < 200 |
| O=C1c2ccccc2CN1c1cccc(-c2nnc3n2[C@H](CO)CC3)n1 [Compound 81, (S)-2-(6-(5-(Hydroxymethyl)-6,7-dihydro-5H-pyrrolo[2,1-c][1,2,4]triazol-3-yl)pyridin-2-yl)isoindolin-1-one] | 1000 to 10000 |
| O=C1c2ccccc2CN1c1cccc(-n2nncc2C2CC2)n1 [Compound 83, 2-(6-(5-cyclopropyl-1H-1,2,3-triazol-1-yl)pyridin-2-yl)isoindolin-1-one] | < 200 |
| O=C1c2ccccc2CN1c1cccc(-n2ccnn2)n1 [Compound 84, 2-(6-(1H-1,2,3-triazol-1-yl)pyridin-2-yl)isoindolin-1-one] | 200 to 1000 |
| CC(C)n1cnnc1-c1cccc(N2Cc3ccc(-c4cccnc4)cc3C2=O)n1 [Compound 85, 2-(6-(4-isopropyl-4H-1,2,4-triazol-3-yl)pyridin-2-yl)-6-(pyridin-3-yl)isoindolin-1-one] | < 200 |
| O=C1c2ccccc2CN1c1nccc(-c2nncn2C2CC2)n1 [Compound 86, 2-(4-(4-cyclopropyl-4H-1,2,4-triazol-3-yl)pyrimidin-2-yl)isoindolin-1-one] | 1000 to 10000 |
| O=c1c2ccccc2[nH]n1-c1cccc(-c2nncn2C2CC2)n1 [Compound 87, 2-(6-(4-cyclopropyl-4H-1,2,4-triazol-3-yl)pyridin-2-yl)-1,2-dihydro-3H-indazol-3-one] | 1000 to 10000 |
| Cn1c2ccccc2c(=O)n1-c1cccc(-c2nncn2C2CC2)n1 [Compound 88, 2-(6-(4-cyclopropyl-4H-1,2,4-triazol-3-yl)pyridin-2-yl)-1-methyl-1,2-dihydro-3H-indazol-3-one] | 1000 to 10000 |
| O=c1c2ccccc2sn1-c1cccc(-c2nncn2C2CC2)n1 [Compound 89, 2-(6-(4-cyclopropyl-4H-1,2,4-triazol-3-yl)pyridin-2-yl)benzo[d]isothiazol-3(2H)-one] | 1000 to 10000 |

Reference: patent US10150755B2, “ASK1 inhibitor compounds and uses thereof” (Seal Rock Therapeutics, Inc., priority 2017, dated 2018)
